Assay results reported in patent US20230029496A1, “AMINO ACID ALTERNATIVE CURING SYSTEM” (THE TEXAS A&M UNIVERSITY SYSTEM, priority 2019, published 2023).
Several values for one entry are separate records, joined by “and”; a condition that tells them apart may be missing. Equal values may be shown once. Marks after values point to notes of the source that are not given here.

Tested on: Nitric Oxide Synthase (NOS) system
Experiment: Cure efficiency (NO-heme, total heme, nitrosylation) of cooked pre-rigor pork semimembranosus muscle (first study)
Format: biochemical
Conditions: for NO-Heme / Total Heme: ppm acid hematin
Experimental: Cooked meat samples were subjected to analysis to determine the degree of nitrosylation of residual nitrite, the procedure set forth by Pearson and Tauber (Pearson and Tauber, 1984) from Hornsey's procedure for analyzing small samples was used to analyze sample supernatant and pellet. 2 mL or 2 g of the samples were treated with acetone to measure NO-heme concentration and separately 2 mL or 2 g of the samples were treated with acetone and hydrochloric acid to measure total heme concentration in a 1 cm quartz cuvette. NO-heme concentration (ppm acid hematin) was determined using a spectrophotometer (2100 Series Spectrophotometer, Unico, Dayton, N.J.) by reading samples at 540 nm. Total heme concentration (ppm acid hematin) was determined at 640 nm determined nitrosylation, which indicated how well varying concentrations of L-arginine affected the NOS system's ability to cure, known as cure efficiency. This procedure measured how much myoglobin was converted to nitroso-hemochromagen, the cured meat color, and the level of conversion compared to all pigmentation within the sample.
Curing efficiency or nitrosylation is calculated as the percentage conversion of NO-heme to total heme. Cure efficiency is the percentage of total pigment converted to nitroso pigment and indicated the degree of cured color fading. Cured meat pigment is extracted in a solution of 80% acetone and 20% water that extracts cured pigment heme. Total heme pigments are extracted using an acidified acetone solution that extracts heme from all heme proteins as first used by Hornsey. NO-heme concentration (as ppm acid hematin)=sample A540×290 determines the specific cure color pink from the rest of the heme pigmentation of the sample. Total heme concentration (ppm acid hematin)=sample A640×680 determines the total heme pigmentation of the sample. Cure efficiency (%)=(ppm of nitrosoheme […]ppm of total pigment)×100 and indicates how much of the product is cured and holds the cured pink stability once cooked.
Procedures • 1. Do all procedures in subdued light to reduce fading of pigment. • 2. Weigh out 2.0 g minced lean meat sample in a 50-mL polypropylene centrifuge tube. • 3. Pipette 9.0 mL acetone-a into 50-mL tube, to obtain acetone concentration of 80%. • 4. Mix thoroughly with a probe-type homogenizer or a glass rod. • 5. Cap the tube to minimize evaporation of acetone, and mix by gentle swirling. • 6. Let stand 10 minutes in the dark, then filter through medium-fast filter paper into a glass test tube. • 7. Transfer filtrate into a 1-cm quartz cuvette and read absorbance at 540 nm. (Avoid use of disposable plastic cuvettes. They become opaque upon exposure to acetone). Calculate nitroso pigment concentration as previously described. • 8. Prepare another 2.0-g sample, using acetone-b. • 9. Macerate and hold 1 hour in the dark before filtering. • 10. Filter the extract as before, and read absorbance at 640 nm. Calculate total pigment and cure efficiency as previously described.

[1] = 2 mM L-arginine, cooked supernatant
[2] = 4 mM L-arginine, cooked supernatant
[3] = 8 mM L-arginine, cooked supernatant
[4] = 16 mM L-arginine, cooked pellet
[5] = 16 mM L-arginine, cooked supernatant
[6] = 32 mM L-arginine, cooked pellet
[7] = 32 mM L-arginine, cooked supernatant

N=C(N)NCCC[C@H](N)C(=O)O [L-arginine]
Nitrosylation (Cure Efficiency) (2 mM L-arginine, cooked pellet): 46.51% and 46.51^ab % | NO-Heme (2 mM L-arginine, cooked pellet): 8.70^a ppm | Total Heme (2 mM L-arginine, cooked pellet): 64.77 ppm and 64.77^a ppm | Nitrosylation (Cure Efficiency) [1]: 125.52^a % | NO-Heme [1]: 43.94^a ppm | Total Heme [1]: 24.22 ppm and 24.22^ab ppm | Nitrosylation (Cure Efficiency) (4 mM L-arginine, cooked pellet): 74.27% and 74.27^ab % | NO-Heme (4 mM L-arginine, cooked pellet): 7.77^a ppm | Total Heme (4 mM L-arginine, cooked pellet): 35.87^ab ppm | Nitrosylation (Cure Efficiency) [2]: 155.68^a % | NO-Heme [2]: 21.09^a ppm | Total Heme [2]: 34.17 ppm and 34.17^ab ppm | Nitrosylation (Cure Efficiency) (8 mM L-arginine, cooked pellet): 70.13% and 70.13^ab % | NO-Heme (8 mM L-arginine, cooked pellet): 9.33^a ppm | Total Heme (8 mM L-arginine, cooked pellet): 33.44^ab ppm | Nitrosylation (Cure Efficiency) [3]: 108.99^a % | NO-Heme [3]: 16.44^a ppm | Total Heme [3]: 70.38 ppm and 70.38^a ppm | Nitrosylation (Cure Efficiency) [4]: 97.82% and 97.82^ab % | NO-Heme [4]: 11.69^a ppm | Total Heme [4]: 36.04^ab ppm | Nitrosylation (Cure Efficiency) [5]: 110.11^a % | NO-Heme [5]: 16.73^a ppm | Total Heme [5]: 20.14 ppm and 20.14^ab ppm | Nitrosylation (Cure Efficiency) [6]: 156.72% and 156.72^a % | NO-Heme [6]: 13.05^a ppm | Total Heme [6]: 54.40^ab ppm | Nitrosylation (Cure Efficiency) [7]: 50.48^a % | NO-Heme [7]: 16.86^a ppm | Total Heme [7]: 31.67 ppm and 31.67^ab ppm | cure efficiency (cooked supernatant, at all L-arginine concentrations): over 100%
